Measurements from patent US9546367B2, “siRNA compositions and methods for inhibiting gene expression in tumor initiating cells of breast cancer” (priority 2011, dated 2017).

Experiments:
[1] = system: BT549; test: high-throughput lentiviral shRNA mammosphere formation (MSFE) screen; assay type: cell-based, human; settings: Z-score of mammosphere formation vs plate mean, one shRNA per well, 2000 cells/well, 8 biological replicates
Protocol: (§1) In previously published results, the inventors described a breast cancer stem cell signature that comprised a set of 493 statistically significant, differentially expressed genes that were present in a tumorigenic subpopulation of breast cancer cells (Creighton et al. 2009). The biological confirmation of the significance of these differentially expressed genes was conducted using a shRNA-based gene knockdown approach, correlating the selective knockdown of target genes with mammosphere formation efficacy (MSFE), an in vitro assay for self-renewal. A library of shRNAs which targets the entire human genome (Open Biosystems, Boston, Mass., USA) was used to create a sub-library of shRNAs against the 493 differentially expressed genes in the tumorigenic signature. A total of 1124 shRNAs (˜2-3 shRNA per gene), and appropriate control shRNAs that were encoded in the pGIPZ vector with a green fluorescent protein tag were selected and arrayed on 13×96-well microtiter plates.
(§2) These shRNAs were packaged into lentiviral particles using a second-generation lentiviral packaging system (Addgene, Cambridge, Mass., USA) in 293T cells plated on 96-well plates. The supernatant was then harvested for transduction and expression in a wide range of cell types. Specifically, lentiviruses were collected 3 days after transfection, frozen at −80° C. immediately, and then thawed for transducing two different breast cancer cell lines SUM159PT (American Type Culture Collection; Manassas, Va., USA) and BT549 (ATCC) with 8 biological replicates. Cells were plated in 13×96-well ultra-low attachment plates, at 2000 cells/well, with one shRNA being transduced per well using the Biomek 3000 automated workstation (Beckman Coulter; Brea, Calif. USA), in order to ensure reproducibility and accuracy.
(§3) The lentiviral transduction rate (˜80-90%) in these cell lines was evaluated by fluorescence microscopy using the GFP tag in the pGIPZ vector. MSFE was then assessed in a high throughput screening approach of all 493 genes.
(§4) For shRNA knockdown studies, the mean and the standard deviation from all measurements of each plate for each replicated experiment were estimated. The Z-score was calculated by subtracting the mean of the plate values and dividing this difference by the standard deviation. […] For tumor volume fold-change comparisons, one-way Anova was used to compare different treatment groups. This was followed by Tukey analysis for a pairwise comparison of different treatment groups. For the tumor recurrence studies, events were defined as first appearance of tumor >50 mm^3 after completion of treatment. Time to recurrence was derived by Kaplan-Meier method, with differences compared using the generalized Mann-Whitney-Wilcoxon rank-sum test.
(§5) Previously, a breast cancer stem cell signature was identified comprising 493 statistically significant differentially expressed genes (Creighton et al., 2009). The biological significance of this gene set was confirmed by conducting shRNA-based gene knockdown, and correlating the selective knockdown of target genes using mammosphere-forming efficiency (MSFE), an in vitro assay for self-renewal. As described in the previous examples, a library of shRNAs targeting the entire human genome (Open Biosystems, MA, USA) was used to create a sub-library of shRNAs against the differentially expressed genes in the tumorigenic signature. Using these genes along with appropriate control shRNAs, a total of 1124 shRNAs (˜2-3 shRNA per gene) were tagged with green fluorescent protein, and encoded in pGIPZ vector, and then arrayed on to 13×96-well plates. These shRNAs were packaged into lentiviral particles using a second-generation lentiviral packaging system (Thermo-Fischer, USA) in 293T cells plated in 96-well plates. The supernatant was then harvested for transduction and expression in a wide range of cell types. […]

[2] = system: SUM159; test: as above; assay type: cell-based, human; settings: Z-score of mammosphere formation vs plate mean, one shRNA per well, 2000 cells/well, 8 biological replicates
Protocol: as §1, §2, §3, §4, §5

[3] = system: SUM159; test: as above; assay type: cell-based, human; settings: positive control; for mammosphere forming efficiency: increasing concentration, SUM159 cells
[4] = system: BCM-2665A human primary tumor; test: docetaxel treatment of BCM-2665A xenograft, tumor growth and ALDF staining; assay type: in vivo, SCID/Beige mice
Protocol: SCID/Beige mice were inoculated with BCM-2665A human primary tumor tissues. After tumors reached 1 cm^3 in size, the tumor mice were treated with 20 mg/kg docetaxel. […] The residual tumor tissues were collected at the end of the experiment, treated with collagenase, and single cells were stained with Aldefluor® reagent (ALDF). Positive staining by ALDF is one of the characteristic markers for TIC. The percentage of ALDF-positive cells was higher in the docetaxel-treated tumor, than in the control samples.

[5] = system: BT549; test: in vitro MSFE with nanoliposome/silicon particle packaged siRNA; assay type: cell-based, human; settings: BT549
Protocol: “Claudin-low”-like human breast cancer cell lines (SUM159 and BT549) were plated in 24-well ultralow attachment plates with mammary epithelial growth medium (MEGM) (5,000 cells/well). Both cell lines were then treated with 1 μg/well/6 wells of silicon particles loaded with DOPC nanoliposomes/siRNA. The primary MSs were allowed to grow for 3 days. MFs were counted on Day 3 with a GelCount colony counter (Oxford Optronix, Oxford, UK). Mammosphere-Forming Efficiency (MSFE) was calculated by dividing the number of MSs by the number of seeded cells. In addition, established MSs were serially passaged by dissociation, and single cells were re-plated on fresh 24-well, ultra-low-attachment plates to form secondary mammospheres, which were counted after 3 days. One-way ANOVA and Tukey tests were performed. A p-value of less than 0.05 was considered significant.
To develop a more clinically relevant model, two of the identified candidates (MLF2 and RPL39L) were compared to Stat3 (positive control), and their siRNA sequences identified within the shRNA vector. These siRNAs were then packaged in nanoliposomes and tested for MSFE using the same protocol as above, except for the addition of packaged siRNA instead of lentiviral shRNA. (N.B. wherein shRNA requires a promoter and needs to be transcribed in order to function, siRNA functions by itself once incorporated into recipient cells).
To develop siRNA nanotherapeutics targeting TIC, studies have been conducted to confirm the essential roles of the candidate TIC genes. Exemplary siRNA oligonucleotides specific for STAT3, MFL2, and RPL39L were formulated into nanoliposomes, which were then loaded into porous silicon MSV particles. For in vitro assay, BT549 and SUM159 cells were incubated with MSV/siRNA, and primary and secondary MSFE was measured. […] For in vivo assessment, SCID/Beige mice were inoculated with SUM159 tumor, and treated with MDS/siRNA delivered by tail vein injection. Cells were then isolated from tumor mice 3 weeks later, and MSFE was measured. […] These studies indicate that 1) MDS/siRNA could successfully be delivered to tumor tissues effectively in vivo, 2) uptake of MDS/siRNA by TIC was efficient, and 3) MFL2 and RPL39L were essential genes for TIC.
The siRNA sequences of two candidate genes RPL39 and MLF2 were packaged in nanoliposomes and the effects on MSFE determined in vitro, as described above, using packaged siRNA instead of lentiviral shRNA.

[6] = system: MDAMB231 lung metastasis; test: in vivo lung metastasis of luciferase-tagged MDAMB231, IVIS imaging; design: species or system SCID-beige mice; settings: siRNA in cationic liposomes twice weekly, week six
Protocol: 3 million cells MDAMB231 cancer cells, stably transfected with luciferase, were injected in the mammary fat pad of SCID-beige mice and were randomized into 3 groups: (1) vehicle+scrambled siRNA, (2) vehicle+MLF2 siRNA, and (3) vehicle+RPL39 siRNA, and treated with siRNA packaged liposomes twice weekly for 6 weeks. The mice were injected with D-luciferin every week for 6 weeks to determine lung metastases using IVIS imaging (Perkin Elmer). The primary tumors were removed by week 5 to continue this study without increasing the primary tumor burden to 10% of body weight.
To assess the effects of RPL39 and MLF2 siRNA on lung metastasis, SCID-Beige mice were injected with luciferase-tagged MDAMB231 cells and treated with siRNA against RPL39 or MLF2 packaged in cationic liposomes, twice weekly simultaneously, and then sacrificed at week six.

## O=S1(=O)N[C@@]2(CN1CC(F)(F)F)[C@@H]1CC[C@H]2Cc2ccc(/C=C/CN3CCC(C(F)(F)F)CC3)cc2C1 [MRK-003]
[1]; listed as AA_GSI_pos1_1
  BT 549 Z-score: −0.731
[1]; listed as AA_GSI_pos1_6
  BT 549 Z-score: −0.688
[1]; listed as AA_GSI_pos1_8
  BT 549 Z-score: −0.519
[1]; listed as AA_GSI_pos1_10
  BT 549 Z-score: −0.719
[1]; listed as AA_GSI_pos1_11
  BT 549 Z-score: −0.675
[1]; listed as AA_GSI_pos2_5
  BT 549 Z-score: −0.463
[1]; listed as AA_GSI_pos2_8
  BT 549 Z-score: −0.894
[1]; listed as AA_GSI_pos2_10
  BT 549 Z-score: −0.685
[1]; listed as AA_GSI_pos2_13
  BT 549 Z-score: −0.397
[2]; listed as AA_GSI_pos1_1
  SUM 159 Z-score: −2.026
[2]; listed as AA_GSI_pos1_6
  SUM 159 Z-score: −1.904
[2]; listed as AA_GSI_pos1_8
  SUM 159 Z-score: −1.850
[2]; listed as AA_GSI_pos1_10
  SUM 159 Z-score: −1.697
[2]; listed as AA_GSI_pos1_11
  SUM 159 Z-score: −2.078
[2]; listed as AA_GSI_pos2_5
  SUM 159 Z-score: −1.923
[2]; listed as AA_GSI_pos2_8
  SUM 159 Z-score: −1.971
[2]; listed as AA_GSI_pos2_10
  SUM 159 Z-score: −2.139
[2]; listed as AA_GSI_pos2_13
  SUM 159 Z-score: −1.857
[3]; 10 μM concentration
  MS formation: dramatically reduced
[3]
  mammosphere forming efficiency: dose-dependent decrease
[3]; listed as notch inhibitor
  mammosphere forming efficiency: inhibiting MS formation

## CC(=O)O[C@@]12CO[C@@H]1C[C@H](O)[C@@]1(C)C(=O)[C@H](O)C3=C(C)[C@@H](OC(=O)[C@H](O)[C@@H](NC(=O)OC(C)(C)C)c4ccccc4)C[C@@](O)([C@@H](OC(=O)c4ccccc4)[C@H]21)C3(C)C [docetaxel]
[4]; 20 mg/kg docetaxel, next 14 days
  tumor growth: Significant inhibition
[4]; residual tumor after 20 mg/kg docetaxel, vs control samples
  percentage of ALDF-positive cells: higher

## scrambled siRNA: control siRNA; sense SEQ ID NO: 1 ATCTCGCTTGGGCGAGAGTAAG, antisense SEQ ID NO: 17 CTTACTCTCGCCCAAGCGAGAG (listed as DNA, chemistry not given here) [reference compound]
[5]; 1 μg/well silicon particles loaded with DOPC nanoliposomes/siRNA, counted Day 3
  MSFE, primary MSs: 2.4%
[5]; silicon particles loaded with DOPC nanoliposomes/siRNA, re-plated, counted after 3 days
  MSFE, secondary MSs: 1%
[6]
  lung metastasis (animals with metastasis / animals), IVIS imaging: 12/12
